In patent US6057351A, “Compounds of the 3-aryl 2,4 dioxo oxazolidine family and use thereof in cosmetic and pharmaceuticals” (Societe L'Oreal S.A., priority 1996, dated 2000):

Columns and labels:
[1] = system: thoracic aorta rings; assay: "Potassic canal opener" type activity: in vitro relaxing power on thoracic aorta rings contracted by KCl 20 mM; assay type: cell-based
Procedure: Measurement of the "potassic canal opener" type activity of the 4-(5-methyl-2,4-dioxo-5-trifluoromethyl)-oxazolidin-3-yl)-2-trifluoromethylbenzonitrile by measuring in vitro the relaxing power of the molecules of thoracic aorta rings.
The experiments are carried out according to the Newgreen et al (Br. J. Pharmacol., 100, 1990, p. 605-613), Bray et al (Arch. Pharmacol., 344, 1991, p. 351-359) and Wickerden et al (Br. J. Pharmacol., 103, 1991, 1148-1152) methods.
After placing the tissues in the isolated organ tanks, they (smooth aortic muscles) are subjected to an initial tension of 2 g.
After a period of equilibration, the tissues are exposed to a potassium chloride solution (KCl, at 20 mM) in order to obtain a sustained contractile response. After stabilization of this contractile response, the relaxing activity (of the potassic canal opener type) of the molecules to be tested is evaluated in response doses.
During the experiment, two reference molecules are used: cromakalim and Minoxidil.
Results expressed in % of inhibition of the contraction provoked by the KCl at 20 mM.

[2] = target: T1, androgen receiver (Rattus norvegicus, UniProt P15207); assay: Affinity for the androgen receiver (Schilling and Liao method), inhibition of testosterone fixation; assay type: binding
T1 sequence (P15207 1-902): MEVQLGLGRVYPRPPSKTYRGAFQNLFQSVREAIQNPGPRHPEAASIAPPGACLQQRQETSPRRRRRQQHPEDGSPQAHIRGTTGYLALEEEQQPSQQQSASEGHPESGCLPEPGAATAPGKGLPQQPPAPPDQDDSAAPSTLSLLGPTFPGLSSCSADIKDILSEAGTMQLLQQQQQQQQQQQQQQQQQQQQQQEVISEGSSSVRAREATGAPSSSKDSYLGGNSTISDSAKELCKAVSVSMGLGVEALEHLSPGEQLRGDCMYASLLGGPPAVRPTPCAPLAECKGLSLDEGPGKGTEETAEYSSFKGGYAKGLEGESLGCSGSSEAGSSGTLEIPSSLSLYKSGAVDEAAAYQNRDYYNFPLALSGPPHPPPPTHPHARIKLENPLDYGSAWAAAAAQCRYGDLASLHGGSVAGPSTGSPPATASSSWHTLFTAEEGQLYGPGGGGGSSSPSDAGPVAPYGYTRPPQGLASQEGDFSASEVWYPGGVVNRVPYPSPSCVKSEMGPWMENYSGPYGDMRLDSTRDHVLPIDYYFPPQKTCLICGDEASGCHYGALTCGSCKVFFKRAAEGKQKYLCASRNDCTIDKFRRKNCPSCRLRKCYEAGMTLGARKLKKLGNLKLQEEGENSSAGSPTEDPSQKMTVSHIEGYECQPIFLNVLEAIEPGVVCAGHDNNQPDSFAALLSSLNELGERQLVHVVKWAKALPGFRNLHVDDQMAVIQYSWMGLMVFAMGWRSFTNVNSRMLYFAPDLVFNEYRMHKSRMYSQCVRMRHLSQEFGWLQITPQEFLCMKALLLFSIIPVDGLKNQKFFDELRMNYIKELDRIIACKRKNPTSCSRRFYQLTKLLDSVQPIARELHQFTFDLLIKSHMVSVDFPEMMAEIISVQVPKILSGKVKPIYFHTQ
Procedure: Measuring the affinity of the 4-(5-methyl-2,4-dioxo-5-trifluoromethyl)-oxazolidin-3-yp)-2-trifluoromethylbenzonitrile for the androgen receiver.
These measurements of receiving affinity for the androgen receiver are executed according to the Schilling and Liao method, described in "The Prostate", 1984, 5.p. 581-588.
The compound is tested at several concentrations. During the experiment, the reference molecule(mibolerone) is tested at the same time at 8 concentrations in order to validate the experiment.
The results are expressed in % of inhibition of the fixation of the testosterone on its receiver. The internal reference (mibolerone) inhibits up to 50% of this fixation at a concentration of 4.3 nM.

Compound | % of inhibition of the contraction provoked by the KCl at 20 mM ([1]; compound at 0.1 μM) [%] | % of inhibition of the contraction provoked by the KCl at 20 mM ([1]; compound at 1 μM) [%] | % of inhibition of the contraction provoked by the KCl at 20 mM ([1]; compound at 10 μM) [%] | activity profile (potassic canal opener / anti-androgen) ([1]; conclusion drawn from the results of Examples 2 and 3) | inhibition at 0.1 µM ([2]; compound at 0.1 μM, read-out: % of inhibition of the fixation of the testosterone on its receiver) [%] | inhibition at 1 µM ([2]; compound at 1 μM, read-out: % of inhibition of the fixation of the testosterone on its receiver) [%] | inhibition at 10 µM ([2]; compound at 10 μM, read-out: % of inhibition of the fixation of the testosterone on its receiver) [%] | IC50 [2] [nM]
CC1(C(F)(F)F)OC(=O)N(c2ccc(C#N)c(C(F)(F)F)c2)C1=O (centres unmarked) [4-(5-methyl-2,4-dioxo-5-trifluoromethyl)-oxazolidin-3-yl)-2-trifluoromethylbenzonitrile] | 12 | 69 | 95 | mixed activity, with a preferred activity for the K* Agonist facet | 2 | 17 | 56 | –
CC1(C)Oc2ccc(C#N)cc2C(N2CCCC2=O)C1O (centres unmarked) [Cromakalim, cromakalim] | 46 | 86 | 100 | – | – | – | – | –
Nc1cc(N2CCCCC2)nc(N)[n+]1[O-] [Minoxidil, 3-oxide pyrimidine 6-piperidino 2,4-diamino] | 25 | 65 | 95 | – | – | – | – | –
C[C@@H]1CC2=CC(=O)CC[C@@H]2[C@H]2CC[C@@]3(C)[C@@H](CC[C@]3(C)O)[C@@H]21 [mibolerone] | – | – | – | – | – | – | – | 4.3
